One experiment deals with T1, Recombinant JAK2 (Homo sapiens, UniProt O60674).
T1 construct: purchased Carna Biosciences
Description: JAK biochemical assay (LANCE Ultra TR-FRET), JAK2. The settings on record: recombinant JAK2, TR-FRET; read-out: Biochemical Assay (μM) JAK2. The procedure, abridged: (§1)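 % inhibition relative to vehicle was derived from TR-FRET signal proportional to ULight-substrate phosphorylation. Reactions used recombinant kinase in HEPES pH 7.5 buffer containing EGTA, MgCl2, DTT and Tween-20.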
In general terms: TR-FRET usually uses a lanthanide donor and a delayed reading to cut background.

The target of a further experiment is T2, Recombinant TYK2 (Homo sapiens, UniProt P29597).
T2 construct: purchased Carna Biosciences
T2 sequence (P29597 whole entry): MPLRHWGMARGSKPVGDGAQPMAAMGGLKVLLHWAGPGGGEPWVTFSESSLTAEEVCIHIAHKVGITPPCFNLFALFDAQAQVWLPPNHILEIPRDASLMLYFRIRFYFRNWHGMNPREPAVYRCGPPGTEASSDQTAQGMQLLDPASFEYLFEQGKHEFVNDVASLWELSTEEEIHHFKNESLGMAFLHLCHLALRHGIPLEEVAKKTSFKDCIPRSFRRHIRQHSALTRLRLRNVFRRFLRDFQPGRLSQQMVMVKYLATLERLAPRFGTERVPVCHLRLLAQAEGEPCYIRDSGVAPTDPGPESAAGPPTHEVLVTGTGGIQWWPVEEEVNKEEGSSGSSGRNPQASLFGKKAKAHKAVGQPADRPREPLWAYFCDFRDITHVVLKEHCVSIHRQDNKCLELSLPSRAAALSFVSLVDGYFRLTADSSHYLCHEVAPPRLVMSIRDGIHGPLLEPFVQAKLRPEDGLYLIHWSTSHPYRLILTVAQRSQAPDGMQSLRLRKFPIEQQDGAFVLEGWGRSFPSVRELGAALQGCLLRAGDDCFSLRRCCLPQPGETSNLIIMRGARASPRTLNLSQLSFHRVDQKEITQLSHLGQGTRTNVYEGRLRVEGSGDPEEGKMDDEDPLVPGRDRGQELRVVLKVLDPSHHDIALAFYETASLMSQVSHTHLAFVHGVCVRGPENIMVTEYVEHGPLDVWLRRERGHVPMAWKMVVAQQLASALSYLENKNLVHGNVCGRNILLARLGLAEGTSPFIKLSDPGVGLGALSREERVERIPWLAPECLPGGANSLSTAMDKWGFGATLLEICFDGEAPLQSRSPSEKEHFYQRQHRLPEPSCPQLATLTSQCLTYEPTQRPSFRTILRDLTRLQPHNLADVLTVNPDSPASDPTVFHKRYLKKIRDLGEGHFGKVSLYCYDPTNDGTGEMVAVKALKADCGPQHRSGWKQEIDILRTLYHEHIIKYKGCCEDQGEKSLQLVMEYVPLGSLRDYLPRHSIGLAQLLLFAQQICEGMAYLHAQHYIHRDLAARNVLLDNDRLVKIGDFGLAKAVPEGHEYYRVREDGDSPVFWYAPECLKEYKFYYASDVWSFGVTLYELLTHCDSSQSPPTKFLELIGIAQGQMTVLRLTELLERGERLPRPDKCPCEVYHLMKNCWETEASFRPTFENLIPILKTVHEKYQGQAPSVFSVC
Description: JAK biochemical assay (LANCE Ultra TR-FRET), TYK2. The settings on record: recombinant TYK2, TR-FRET; read-out: Biochemical Assay (μM) TYK2. In outline:
as §1

Experiment [1] deals with STAT5 phosphorylation by GMCSF in TF-1 cells. Description: JAK cellular assay: STAT5 phosphorylation by GMCSF in TF-1 cells (HTRF). The class given is cell-based. Conditions: TF-1 cells, GMCSF 5 ng/ml, pSTAT5 HTRF, read-out: Cell Based Assay (μM) TF-1/GMCSF/pSTAT5. On the procedure:
(§2) TF-1 cells were starved overnight in OptiMEM medium with 0.5% charcoal stripped fetal bovine serum, 0.1 mM nonessential amino acids (NEAA), 1 mM sodium pyruvate and without phenol red in CO2 incubator maintained at 37° c. Next day, cells were resuspended in RPMI without phenol red and dispensed into a 96 well plate at a final cell density of 1,20,000 cells per well. Compounds were diluted in DMSO and added to cells and incubated for 30 minutes in CO2 incubator maintained at 37° c. Final DMSO concentration in cell based assay was 0.2%. Human recombinant cytokines, IL-6 (30 ng/ml) and GMCSF (5 ng/ml) were added to the plate containing cells along with compound and incubated for 20 minutes with gentle tapping at every 5 minutes once. Compound mediated effects on STAT3 and STAT5 phosphorylation was measured in the lysates prepared by using CISBIO pSTAT3 and pSTAT5 detection kits by HTRF method. Background signal obtained from cells which were not activated with cytokines, was subtracted from vehicle controls and compound treated wells.

A further experiment concerns the target T3, Recombinant JAK3 (Homo sapiens, UniProt P52333).
T3 construct: purchased Carna Biosciences
T3 sequence (P52333 1-1124): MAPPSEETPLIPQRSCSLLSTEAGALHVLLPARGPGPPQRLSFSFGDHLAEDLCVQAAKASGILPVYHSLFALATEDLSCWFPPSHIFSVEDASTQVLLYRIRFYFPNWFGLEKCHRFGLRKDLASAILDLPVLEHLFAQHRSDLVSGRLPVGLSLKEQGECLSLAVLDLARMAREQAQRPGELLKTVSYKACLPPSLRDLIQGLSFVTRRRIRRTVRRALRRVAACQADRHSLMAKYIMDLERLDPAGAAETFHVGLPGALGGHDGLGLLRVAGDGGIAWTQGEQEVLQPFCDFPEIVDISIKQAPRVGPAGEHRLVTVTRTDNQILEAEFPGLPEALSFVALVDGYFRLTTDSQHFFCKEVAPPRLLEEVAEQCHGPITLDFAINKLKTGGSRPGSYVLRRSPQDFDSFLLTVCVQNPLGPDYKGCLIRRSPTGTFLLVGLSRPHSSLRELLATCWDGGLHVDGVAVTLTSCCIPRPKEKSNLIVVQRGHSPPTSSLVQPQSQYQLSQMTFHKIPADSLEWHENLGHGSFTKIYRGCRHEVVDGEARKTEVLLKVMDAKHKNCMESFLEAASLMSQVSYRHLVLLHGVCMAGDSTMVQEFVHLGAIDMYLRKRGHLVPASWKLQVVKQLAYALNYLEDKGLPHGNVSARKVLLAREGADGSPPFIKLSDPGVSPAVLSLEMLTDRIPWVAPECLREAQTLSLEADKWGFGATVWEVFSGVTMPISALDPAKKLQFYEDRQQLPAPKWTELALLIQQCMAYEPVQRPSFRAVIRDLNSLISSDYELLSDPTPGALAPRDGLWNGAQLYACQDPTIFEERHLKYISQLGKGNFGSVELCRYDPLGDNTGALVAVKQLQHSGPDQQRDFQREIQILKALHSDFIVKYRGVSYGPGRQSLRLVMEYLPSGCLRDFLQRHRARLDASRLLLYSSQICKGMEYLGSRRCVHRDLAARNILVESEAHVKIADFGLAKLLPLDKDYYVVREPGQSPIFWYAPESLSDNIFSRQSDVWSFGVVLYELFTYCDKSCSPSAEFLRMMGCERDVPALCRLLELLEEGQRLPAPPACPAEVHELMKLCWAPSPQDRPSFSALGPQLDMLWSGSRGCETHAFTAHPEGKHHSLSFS
Description: JAK biochemical assay (LANCE Ultra TR-FRET), JAK3. Conditions: recombinant JAK3, TR-FRET; read-out: Biochemical Assay (μM) JAK3. The procedure, abridged: as §1

The test system of experiment [2] is STAT3 phosphorylation by IL-6 in TF-1 cells. Description: JAK cellular assay: STAT3 phosphorylation by IL-6 in TF-1 cells (HTRF). The class given is cell-based. Conditions: IL-6 30 ng/ml, pSTAT3 HTRF, read-out: Cell Based Assay (μM) TF-1/IL-6/pSTAT3. The method, then:
as §2

In the next experiment the target is T4, Recombinant JAK1 (Homo sapiens, UniProt P23458).
T4 construct: purchased Carna Biosciences
T4 sequence (P23458 whole entry): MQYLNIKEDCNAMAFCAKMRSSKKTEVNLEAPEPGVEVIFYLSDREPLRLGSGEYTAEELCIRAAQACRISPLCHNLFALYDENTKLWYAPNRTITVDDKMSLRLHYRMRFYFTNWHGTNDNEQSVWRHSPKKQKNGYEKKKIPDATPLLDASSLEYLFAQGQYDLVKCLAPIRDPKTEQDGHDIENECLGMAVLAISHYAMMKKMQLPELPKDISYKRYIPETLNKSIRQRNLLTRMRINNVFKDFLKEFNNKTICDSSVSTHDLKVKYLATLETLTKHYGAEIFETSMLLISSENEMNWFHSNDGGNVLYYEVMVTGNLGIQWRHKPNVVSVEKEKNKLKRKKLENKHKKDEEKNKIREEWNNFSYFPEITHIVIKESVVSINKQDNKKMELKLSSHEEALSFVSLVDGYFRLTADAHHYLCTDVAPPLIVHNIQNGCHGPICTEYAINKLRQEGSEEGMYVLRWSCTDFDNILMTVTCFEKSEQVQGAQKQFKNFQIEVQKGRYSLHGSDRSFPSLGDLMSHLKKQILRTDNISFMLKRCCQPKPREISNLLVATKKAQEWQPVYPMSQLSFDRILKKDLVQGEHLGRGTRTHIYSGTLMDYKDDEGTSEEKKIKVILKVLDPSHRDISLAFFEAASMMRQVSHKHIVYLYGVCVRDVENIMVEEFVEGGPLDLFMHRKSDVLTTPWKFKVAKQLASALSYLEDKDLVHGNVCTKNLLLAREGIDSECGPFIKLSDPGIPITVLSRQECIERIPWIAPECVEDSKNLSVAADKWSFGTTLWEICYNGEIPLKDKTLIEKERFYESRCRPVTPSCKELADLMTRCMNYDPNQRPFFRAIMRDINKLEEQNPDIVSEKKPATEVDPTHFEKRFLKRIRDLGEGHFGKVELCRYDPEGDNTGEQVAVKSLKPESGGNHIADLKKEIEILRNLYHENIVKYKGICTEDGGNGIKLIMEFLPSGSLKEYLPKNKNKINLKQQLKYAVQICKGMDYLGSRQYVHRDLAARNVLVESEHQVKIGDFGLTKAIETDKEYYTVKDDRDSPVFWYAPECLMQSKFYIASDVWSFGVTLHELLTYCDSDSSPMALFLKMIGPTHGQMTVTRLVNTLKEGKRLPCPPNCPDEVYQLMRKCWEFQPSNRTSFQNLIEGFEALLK
Description: JAK biochemical assay (LANCE Ultra TR-FRET), JAK1. The settings on record: recombinant JAK1, TR-FRET; read-out: Biochemical Assay (μM) JAK1. In outline: as §1

Where a name gives a salt, the structure may show the parent alone. Read-outs that look alike come from different tables or passages of the source. Some results are limits rather than exact numbers.

T1 sequence (O60674 whole entry): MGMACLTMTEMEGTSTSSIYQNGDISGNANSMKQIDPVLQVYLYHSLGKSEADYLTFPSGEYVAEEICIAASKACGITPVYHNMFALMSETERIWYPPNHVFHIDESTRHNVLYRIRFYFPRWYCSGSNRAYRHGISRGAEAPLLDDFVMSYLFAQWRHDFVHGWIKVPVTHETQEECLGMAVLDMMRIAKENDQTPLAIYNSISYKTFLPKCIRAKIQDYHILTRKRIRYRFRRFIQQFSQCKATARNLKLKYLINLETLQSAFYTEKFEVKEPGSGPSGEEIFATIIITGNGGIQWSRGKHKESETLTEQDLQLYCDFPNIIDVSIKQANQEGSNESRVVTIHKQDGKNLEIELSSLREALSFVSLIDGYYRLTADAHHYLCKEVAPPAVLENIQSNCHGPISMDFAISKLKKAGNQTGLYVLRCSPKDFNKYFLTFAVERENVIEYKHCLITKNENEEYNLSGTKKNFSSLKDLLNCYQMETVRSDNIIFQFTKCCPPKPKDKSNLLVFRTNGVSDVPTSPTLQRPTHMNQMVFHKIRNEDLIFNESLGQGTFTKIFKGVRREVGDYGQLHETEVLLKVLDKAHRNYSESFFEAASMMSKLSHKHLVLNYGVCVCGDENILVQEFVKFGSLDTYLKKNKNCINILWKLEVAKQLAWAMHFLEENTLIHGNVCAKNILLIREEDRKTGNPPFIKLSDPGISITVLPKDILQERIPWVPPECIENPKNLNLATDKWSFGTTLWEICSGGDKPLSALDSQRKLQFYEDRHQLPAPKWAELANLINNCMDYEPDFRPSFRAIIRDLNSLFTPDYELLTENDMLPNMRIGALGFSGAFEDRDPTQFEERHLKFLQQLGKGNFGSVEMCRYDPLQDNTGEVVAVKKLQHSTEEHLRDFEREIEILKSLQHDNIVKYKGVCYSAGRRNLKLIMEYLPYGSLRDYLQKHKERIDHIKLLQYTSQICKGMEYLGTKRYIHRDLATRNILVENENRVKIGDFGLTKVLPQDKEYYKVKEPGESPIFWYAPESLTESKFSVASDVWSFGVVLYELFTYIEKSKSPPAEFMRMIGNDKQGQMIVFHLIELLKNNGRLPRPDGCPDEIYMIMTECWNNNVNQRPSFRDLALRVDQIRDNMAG

As to `N#CC(c1ccc(-n2cc(-c3ccnc4[nH]cnc34)cn2)nc1)N1CCOCC1` (stereo not drawn) [Example 1112, 2-(6-(4-(3H-imidazo[4,5-b]pyridin-7-yl)-1H-pyrazol-1-yl)pyridin-3-yl)-2-morpholinoacetonitrile], the IC50 on Recombinant JAK2 was over 0.5 µM; on Recombinant TYK2, over 1 µM; in experiment [1] (Homo sapiens) it was over 10 µM; at Recombinant JAK3 it was over 1 µM; in experiment [2] (Homo sapiens, TF-1, TF-1 cells) it was 10 µM.

Turning to `FC(F)(F)Cc1ccc(-n2cc(-c3ccnc4[nH]cnc34)cn2)nc1` [Example 1084, 7-(1-(5-(2,2,2-trifluoroethyl)pyridin-2-yl)-1H-pyrazol-4-yl)-3H-imidazo[4,5-b]pyridine], the IC50 is over 10 µM in experiment [1] (Homo sapiens) and over 1 µM in experiment [2] (Homo sapiens, TF-1, TF-1 cells).

On to `CC(CC#N)NC(=O)n1cc(-c2ccnc3[nH]c(=O)[nH]c23)cn1` (stereo not drawn) [Example 1053, N-(1-cyanopropan-2-yl)-4-(2,3-dihydro-2-oxo-1H-imidazo[4,5-b]pyridin-7-yl)-1H-pyrazole-1-carboxamide], for which the IC50 on Recombinant JAK2 was under 1 µM; at Recombinant JAK1 it was under 1 µM; on Recombinant TYK2 it was over 1 µM; in experiment [1] it was over 10 µM; in experiment [2] (TF-1 cells) it was over 10 µM.

Turning to `CN(C)C(=O)CC(c1ccc(-n2cc(-c3ccnc4[nH]cnc34)cn2)nc1)C(F)(F)F` (stereo not drawn) [Example 1144, 3-(6-(4-(3H-imidazo[4,5-b]pyridin-7-yl)-1H-pyrazol-1-yl)pyridin-3-yl)-4,4,4-trifluoro-N,N-dimethylbutanamide], the IC50 is over 1 µM at Recombinant TYK2; over 10 µM in experiment [1] (Homo sapiens); over 0.1 µM on Recombinant JAK3; over 1 µM in experiment [2] (Homo sapiens, TF-1, TF-1 cells).

In the case of `OC(c1ccc(-n2cc(-c3ccnc4[nH]cnc34)cn2)nc1)(C1CCOCC1)C(F)(F)F` (stereo not drawn) [Example 1134, 1-(6-(4-(3H-imidazo[4,5-b]pyridin-7-yl)-1H-pyrazol-1-yl)pyridin-3-yl)-2,2,2-trifluoro-1-(tetrahydro-2H-pyran-4-yl)ethanol], the IC50 is under 0.1 µM at Recombinant JAK1; over 1 µM at Recombinant TYK2; over 10 µM in experiment [1] (Homo sapiens); under 0.1 µM at Recombinant JAK3; over 1 µM in experiment [2] (Homo sapiens, TF-1, TF-1 cells).

For the compound `N#CCc1cccc(-n2cc(-c3ccnc4[nH]cnc34)cn2)n1` [Example 1117, 2-(6-(4-(3H-imidazo[4,5-b]pyridin-7-yl)-1H-pyrazol-1-yl)pyridin-2-yl)acetonitrile], the IC50 in experiment [1] (Homo sapiens) was over 10 µM; in experiment [2] (Homo sapiens, TF-1, TF-1 cells), over 1 µM.

Regarding `CN1CCN(CC(c2ccc(-n3cc(-c4ccnc5[nH]cnc45)cn3)nc2)C(F)(F)F)CC1` (stereo not drawn) [Example 1222, 7-(1-(5-(1,1,1-trifluoro-3-(4-methylpiperazin-1-yl)propan-2-yl)pyridin-2-yl)-1H-pyrazol-4-yl)-3H-imidazo[4,5-b]pyridine], the IC50 is over 1 µM in experiment [1] (Homo sapiens) and over 0.8 µM in experiment [2] (Homo sapiens, TF-1, TF-1 cells).

For `CC(N)CCC(c1ccc(-n2cc(-c3ccnc4[nH]cnc34)cn2)nc1)C(F)(F)F` (stereo not drawn) [Example 1224, 5-(6-(4-(3H-imidazo[4,5-b]pyridin-7-yl)-1H-pyrazol-1-yl)pyridin-3-yl)-6,6,6-trifluorohexan-2-amine, TFA salt], the IC50 at Recombinant TYK2 is over 0.1 µM; in experiment [1] (Homo sapiens) it was over 1 µM; at Recombinant JAK3, 0.001 µM; in experiment [2] (Homo sapiens, TF-1, TF-1 cells), over 0.75 µM.

`O=C(NCC(F)(F)F)Nc1ccc(-c2ccnc3[nH]c(=O)[nH]c23)cc1` [Example 1003, 1-(2,2,2-trifluoroethyl)-3-(4-(2,3-dihydro-2-oxo-1H-imidazo[4,5-b]pyridin-7-yl)phenyl)urea]: the IC50 at Recombinant JAK2 is 0.036 µM; at Recombinant JAK1 it was 0.021 µM; at Recombinant TYK2, 0.182 µM; at Recombinant JAK3 it was 0.175 µM; in experiment [2] (Homo sapiens, TF-1, TF-1 cells), over 10 µM.

As to `N#CC1(NC(=O)n2cc(-c3ccnc4[nH]c(=O)[nH]c34)cn2)CC1` [Example 1032, N-(1-cyanocyclopropyl)-4-(2,3-dihydro-2-oxo-1H-imidazo[4,5-b]pyridin-7-yl)-1H-pyrazole-1-carboxamide], the IC50 at Recombinant JAK2 is under 0.5 µM; at Recombinant JAK1 it was under 0.5 µM; on Recombinant TYK2, under 0.5 µM; at Recombinant JAK3 it was under 0.5 µM; in experiment [2] (Homo sapiens, TF-1, TF-1 cells), over 10 µM.

With `O=C(NCC(F)(F)F)n1cc(-c2ccnc3[nH]cnc23)cn1` [Example 1064, N-(2,2,2-trifluoroethyl)-4-(3H-imidazo[4,5-b]pyridin-7-yl)-1H-pyrazole-1-carboxamide], the IC50 on Recombinant JAK2 is under 0.5 µM; on Recombinant JAK1, under 0.5 µM; on Recombinant TYK2 it was under 0.5 µM; at Recombinant JAK3, under 0.5 µM; in experiment [2] (Homo sapiens, TF-1, TF-1 cells), over 10 µM.

As to `O=C(NC(C1CCCC1)C(F)(F)F)n1cc(-c2ccnc3[nH]c(=O)[nH]c23)cn1` (stereo not drawn) [Example 1041, N-(1-cyclopentyl-2,2,2-trifluoroethyl)-4-(2,3-dihydro-2-oxo-1H-imidazo[4,5-b]pyridin-7-yl)-1H-pyrazole-1-carboxamide], the IC50 at Recombinant JAK2 is over 1 µM; at Recombinant JAK1, over 1 µM; on Recombinant TYK2, over 1 µM; at Recombinant JAK3, over 10 µM; in experiment [2] (Homo sapiens, TF-1, TF-1 cells), over 10 µM.

As to `CC1(C)CN(C(=O)Nc2ccc(-c3ccnc4[nH]c(=O)[nH]c34)cc2)C1` [Example 1007, N-(4-(2,3-dihydro-2-oxo-1H-imidazo[4,5-b]pyridin-7-yl)phenyl)-3,3-dimethylazetidine-1-carboxamide], the IC50 at Recombinant JAK2 is over 0.5 µM; on Recombinant JAK1, over 0.5 µM; at Recombinant TYK2, over 1 µM; on Recombinant JAK3 it was over 1 µM; in experiment [2] (Homo sapiens, TF-1, TF-1 cells) it was over 10 µM.

In the case of `N#CCCC1CCN(C(=O)n2cc(-c3ccnc4[nH]c(=O)[nH]c34)cn2)C1` (stereo not drawn) [Example 1061, 3-(1-(4-(2-oxo-2,3-dihydro-1H-imidazo[4,5-b]pyridin-7-yl)-1H-pyrazole-1-carbonyl)pyrrolidin-3-yl)propanenitrile], the IC50 at Recombinant JAK1 was over 1 µM; at Recombinant TYK2, over 1 µM; in experiment [1] (Homo sapiens), over 10 µM; at Recombinant JAK3, over 1 µM; in experiment [2] (Homo sapiens, TF-1, TF-1 cells) it was over 10 µM.

Regarding `CC(C)C(C#N)NC(=O)n1cc(-c2ccnc3[nH]c(=O)[nH]c23)cn1` (stereo not drawn) [Example 1044, N-(1-cyano-2-methylpropyl)-4-(2,3-dihydro-2-oxo-1H-imidazo[4,5-b]pyridin-7-yl)-1H-pyrazole-1-carboxamide], the IC50 at Recombinant JAK2 was under 0.5 µM; on Recombinant JAK1, under 0.5 µM; on Recombinant TYK2 it was under 0.5 µM; at Recombinant JAK3, under 0.5 µM; in experiment [2] (Homo sapiens, TF-1, TF-1 cells) it was 10 µM.

Take `N#CC(NC(=O)n1cc(-c2ccnc3[nH]c(=O)[nH]c23)cn1)C1CCCC1` (stereo not drawn) [Example 1038, N-(cyano(cyclopentyl)methyl)-4-(2,3-dihydro-2-oxo-1H-imidazo[4,5-b]pyridin-7-yl)-1H-pyrazole-1-carboxamide]: the IC50 on Recombinant JAK2 is over 0.5 µM; on Recombinant JAK1 it was over 0.5 µM; on Recombinant TYK2, over 0.5 µM; on Recombinant JAK3 it was over 0.5 µM; in experiment [2] (Homo sapiens, TF-1, TF-1 cells), 10 µM.

The record behind these values is patent US12516056B2, “Compounds for inhibition of janus kinase 1” (MANKIND PHARMA LTD., priority 2019, dated 2026).
